Experimental findings from patent publication US9359297B2, “Spirolactam derivatives and uses of same” (H. Lundbeck A/S, priority 2009, dated 2016) are described below.

The assay addresses T1, rat metabotropic glutamate receptor 5 (rmGluR5) (Rattus norvegicus, UniProt P31424).
T1 construct: expressed in transfected cells
Briefly: Calcium mobilization (FLIPR) assay for negative allosteric modulation, EC80 glutamate, rmGluR5 in HEK 293. It counts as cell-based. To be noted: HEK293; rmGluR5, inhibition of EC80 glutamate response; read-out: FLIPR maximum inhibition. How it is done:
The cDNA for rat metabotropic glutamate receptor 5 (rmGluR5) and the cDNA for human metabotropic glutamate receptor 5 (hmGluR5) were generous gifts from S. Nakanishi (Kyoto University, Kyoto, Japan). The rmGluR5 or hmGluR5 was stably expressed in a HEK 293 cell line and grown in Dulbecco's Modified Eagle Medium (DMEM) (Invitrogen, Carlsbad, Calif.) with supplements (10% bovine calf serum, 4 mM glutamine, 100 units/mL penicillin, 100 μg/mL streptomycin and 0.75 mM G1418) at 37° C., 5% CO2. Twenty-four hours prior to assay, cells were seeded into 384-well black wall microtiter plates coated with poly-D-lysine. Just prior to assay, media was aspirated and cells dye-loaded (25 μL/well) with 3 μM Fluo-4/0.01% pluronic acid in assay buffer (Hank's Balanced Saline Solution (HBSS)): 150 mM NaCl, 5 mM KCl, 1 mM CaCl2, 1 mM MgCl2, plus 20 mM N-2-Hydroxyethylpiperazine-N′-2-ethanesulfonic acid (HEPES), pH 7.4, 0.1% bovine serum albumin (BSA) and 2.5 mM probenicid) for 1 hour in 5% CO2 at 37° C. After excess dye was discarded, cells were washed in assay buffer and layered with a final volume equal to 30 μL/well. Basal fluorescence is monitored in a fluorometric imaging plate reader (FLIPR) (Molecular Devices, Sunnyvale, Calif.) with an excitation wavelength of 488 nm and an emission range of 500 to 560 nm. Laser excitation energy was adjusted so that basal fluorescence readings were approximately 10,000 relative fluorescent units. Cells were stimulated with an EC20 or an EC80 concentration of glutamate in the presence of a compound to be tested, both diluted in assay buffer, and relative fluorescent units were measured at defined intervals (exposure=0.6 sec) over a 3 min period at room temperature. Basal readings derived from negative controls were subtracted from all samples. Maximum change in fluorescence was calculated for each well. Concentration-response curves derived from the maximum change in fluorescence were analyzed by nonlinear regression (Hill equation). A negative modulator can be identified from these concentration-response curves if a compound produces a concentration dependent inhibition of the EC80 glutamate response.
In general terms: Calcium assays in cells follow changes in intracellular calcium, usually with a dye or a luminescent sensor.

Molecules are shown by their SMILES.

T1 sequence (P31424 21-1203): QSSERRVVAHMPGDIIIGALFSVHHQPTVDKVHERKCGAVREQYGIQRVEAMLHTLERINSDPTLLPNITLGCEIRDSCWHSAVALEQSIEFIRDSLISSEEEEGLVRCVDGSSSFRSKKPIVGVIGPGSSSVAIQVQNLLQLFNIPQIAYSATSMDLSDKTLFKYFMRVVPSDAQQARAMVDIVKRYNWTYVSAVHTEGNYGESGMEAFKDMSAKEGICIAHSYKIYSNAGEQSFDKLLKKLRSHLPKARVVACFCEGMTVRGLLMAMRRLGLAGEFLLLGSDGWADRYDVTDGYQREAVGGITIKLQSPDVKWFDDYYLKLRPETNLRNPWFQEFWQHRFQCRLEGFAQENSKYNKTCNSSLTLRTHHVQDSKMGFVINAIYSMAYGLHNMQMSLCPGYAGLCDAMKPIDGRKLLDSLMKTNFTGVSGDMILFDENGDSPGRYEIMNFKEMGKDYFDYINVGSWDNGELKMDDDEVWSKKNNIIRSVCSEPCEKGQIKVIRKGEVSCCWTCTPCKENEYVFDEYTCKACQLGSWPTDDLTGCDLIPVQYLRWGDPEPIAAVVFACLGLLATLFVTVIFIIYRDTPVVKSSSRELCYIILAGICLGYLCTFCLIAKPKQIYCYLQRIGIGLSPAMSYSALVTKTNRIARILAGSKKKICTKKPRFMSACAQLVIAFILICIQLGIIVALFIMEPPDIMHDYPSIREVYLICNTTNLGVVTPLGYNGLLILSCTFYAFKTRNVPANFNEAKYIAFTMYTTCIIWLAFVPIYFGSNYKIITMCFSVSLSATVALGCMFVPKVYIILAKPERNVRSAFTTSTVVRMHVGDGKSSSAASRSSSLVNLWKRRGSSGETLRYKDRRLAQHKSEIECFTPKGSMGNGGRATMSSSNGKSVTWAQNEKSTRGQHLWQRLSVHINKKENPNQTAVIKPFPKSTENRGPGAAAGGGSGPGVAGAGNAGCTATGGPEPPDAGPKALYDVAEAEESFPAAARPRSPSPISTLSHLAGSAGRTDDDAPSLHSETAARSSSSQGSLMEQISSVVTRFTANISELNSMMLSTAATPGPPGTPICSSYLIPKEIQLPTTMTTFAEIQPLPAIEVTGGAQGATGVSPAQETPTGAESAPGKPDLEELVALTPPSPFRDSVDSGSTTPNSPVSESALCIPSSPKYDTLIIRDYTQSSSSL

`Cc1ccnc(N2CC[C@]3(CCC[C@H](NC(=O)c4ccccn4)C3)C2=O)n1` (relative stereo) [Example 29, cis-Pyridine-2-carboxylic acid [2-(4-methyl-pyrimidin-2-yl)-1-oxo-2-aza-spiro [4.5]dec-7-yl]-amide]: the Emax is 81 to 99%. Consider `O=C(N[C@H]1CCC[C@]2(CCN(c3cc(F)ccn3)C2=O)C1)c1ccccn1` (relative stereo) [Example 30, cis-Pyridine-2-carboxylic acid [2-(4-fluoro-pyridin-2-yl)-1-oxo-2-aza-spiro[4.5]dec-7-yl]-amide], for which the Emax lay in the range of 81 to 99%. Turning to `Cc1cccc(C(=O)N[C@H]2CCC[C@]3(CCN(c4ccc(F)cn4)C3=O)C2)n1` (relative stereo) [Example 31, cis-6-Methyl-pyridine-2-carboxylic acid [2-(5-fluoro-pyridin-2-yl)-1-oxo-2-aza-spiro[4.5]dec-7-yl]-amide], the Emax lay within 81 to 99%. As for `Cc1cccc(C(=O)N[C@H]2CCC[C@]3(CCN(c4cc(F)ccn4)C3=O)C2)n1` (relative stereo) [Example 32, cis-6-Methyl-pyridine-2-carboxylic acid [2-(4-fluoro-pyridin-2-yl)-1-oxo-2-aza-spiro[4.5]dec-7-yl]-amide], the Emax lay within 81 to 99%.

On to `O=C(N[C@H]1CCC[C@]2(CCN(c3ccc(F)cn3)C2=O)C1)c1ccccn1` (relative stereo) [Example 33, cis-Pyridine-2-carboxylic acid [2-(5-fluoro-pyridin-2-yl)-1-oxo-2-aza-spiro [4.5]dec-7-yl]-amide], for which the Emax lay within 81 to 99%.

Turning to `Cc1cccc(C(=O)N[C@H]2CCC[C@]3(CCN(c4nccc(C)n4)C3=O)C2)n1` (relative stereo) [Example 34, cis-6-Methyl-pyridine-2-carboxylic acid [2-(4-methyl-pyrimidin-2-yl)-1-oxo-2-aza-spiro[4.5]dec-7-yl]-amide], the Emax lay in the range of 81 to 99%. On to `O=C(N[C@H]1CCC[C@]2(CCN(c3ccc(F)cn3)C2=O)C1)c1cccc(F)c1` (relative stereo) [Example 35, cis-3-Fluoro-N-[2-(5-fluoro-pyridin-2-yl)-1-oxo-2-aza-spiro[4.5]dec-7-yl]-benzamide], for which the Emax was in the range of 81 to 99%. As to `O=C(N[C@H]1CCC[C@]2(CCN(c3cc(F)ccn3)C2=O)C1)c1cccc(F)c1` (relative stereo) [Example 36, cis-3-Fluoro-N-[2-(4-fluoro-pyridin-2-yl)-1-oxo-2-aza-spiro[4.5]dec-7-yl]-benzamide], the Emax was in the range of 81 to 99%. Consider `Cc1ccnc(N2CC[C@]3(CCC[C@H](NC(=O)c4cccc(F)c4)C3)C2=O)n1` (relative stereo) [Example 37, cis-3-Fluoro-N-[2-(4-methyl-pyrimidin-2-yl)-1-oxo-2-aza-spiro[4.5]dec-7-yl]-benzamide], for which the Emax was in the range of 81 to 99%.

For the molecule `Cc1cncc(N2CC[C@]3(CCC[C@H](NC(=O)c4cccc(F)c4)C3)C2=O)n1` (relative stereo) [Example 38, cis-3-Fluoro-N-[2-(6-methyl-pyrazin-2-yl)-1-oxo-2-aza-spiro[4.5]dec-7-yl]-benzamide], the Emax lay within 81 to 99%. In the case of `Cc1cncc(N2CC[C@]3(CCC[C@H](NC(=O)c4ccccn4)C3)C2=O)n1` (relative stereo) [Example 39, cis-Pyridine-2-carboxylic acid [2-(6-methyl-pyrazin-2-yl)-1-oxo-2-aza-spiro [4.5]dec-7-yl]-amide], the Emax was in the range of 81 to 99%.

As for `Cc1cccc(C(=O)N[C@H]2CCC[C@]3(CCN(c4cncc(C)n4)C3=O)C2)n1` (relative stereo) [Example 40, cis-6-Methyl-pyridine-2-carboxylic acid [2-(6-methyl-pyrazin-2-yl)-1-oxo-2-aza-spiro[4.5]dec-7-yl]-amide], the Emax is 81 to 99%. As for `Cc1cccc(C(=O)N[C@H]2CCC[C@]3(CCN(c4cccc(C#N)n4)C3=O)C2)n1` (relative stereo) [Example 43, cis-6-Methyl-pyridine-2-carboxylic acid [2-(6-cyano-pyridin-2-yl)-1-oxo-2-aza-spiro[4.5]dec-7-yl]-amide], the Emax fell in the range of 81 to 99%.

In the case of `Cc1cccc(C(=O)N[C@H]2CCC[C@]3(CCN(c4ccccc4)C3=O)C2)n1` (relative stereo) [Example 46, cis-6-Methyl-pyridine-2-carboxylic acid (1-oxo-2-phenyl-2-aza-spiro[4.5]dec-7-yl)-amide], the Emax is 81 to 99%. The same measure for `Cc1cccc(N2CC[C@]3(CCC[C@H](NC(=O)c4cccc(C)n4)C3)C2=O)c1` (relative stereo) [Example 47, cis-6-Methyl-pyridine-2-carboxylic acid (1-oxo-2-m-tolyl-2-aza-spiro[4.5]dec-7-yl)-amide]: 81 to 99%; for `Cc1ccnc(N2CC[C@]3(CCC[C@H](NC(=O)c4cccc(C)n4)C3)C2=O)c1` (relative stereo) [Example 48, cis-6-Methyl-pyridine-2-carboxylic acid [2-(4-methyl-pyridin-2-yl)-1-oxo-2-aza-spiro[4.5]dec-7-yl]-amide]: 81 to 99%; for `Cc1ccc(N2CC[C@]3(CCC[C@H](NC(=O)c4cccc(C)n4)C3)C2=O)nc1` (relative stereo) [Example 49, cis-6-Methyl-pyridine-2-carboxylic acid [2-(5-methyl-pyridin-2-yl)-1-oxo-2-aza-spiro[4.5]dec-7-yl]-amide]: 81 to 99%. Regarding `Cc1cccc(C(=O)N[C@H]2CCC[C@]3(CCN(c4ncccc4C)C3=O)C2)n1` (relative stereo) [Example 50, cis-6-Methyl-pyridine-2-carboxylic acid [2-(3-methyl-pyridin-2-yl)-1-oxo-2-aza-spiro[4.5]dec-7-yl]-amide], the Emax fell in the range of 81 to 99%. `Cc1cccc(C(=O)N[C@H]2CCC[C@]3(CCN(c4ccccc4F)C3=O)C2)n1` (relative stereo) [Example 51, cis-6-Methyl-pyridine-2-carboxylic acid [2-(2-fluoro-phenyl)-1-oxo-2-aza-spiro[4.5]dec-7-yl]-amide]: the Emax was 81 to 99%. Consider `Cc1cc(N2CC[C@]3(CCC[C@H](NC(=O)c4cccc(C)n4)C3)C2=O)ccn1` (relative stereo) [Example 52, cis-6-Methyl-pyridine-2-carboxylic acid [2-(2-methyl-pyridin-4-yl)-1-oxo-2-aza-spiro[4.5]dec-7-yl]-amide], for which the Emax lay in the range of 81 to 99%. The same measure for `N#Cc1cccc(N2CC[C@]3(CCC[C@H](NC(=O)c4cccc(F)c4)C3)C2=O)n1` (relative stereo) [Example 53, cis-N-[2-(6-Cyano-pyridin-2-yl)-1-oxo-2-aza-spiro[4.5]dec-7-yl]-3-fluoro-benzamide]: 81 to 99%; for `O=C(N[C@H]1CCC[C@]2(CCN(c3cc(F)cc(F)c3)C2=O)C1)c1ccccn1` (relative stereo) [Example 54, cis-Pyridine-2-carboxylic acid [2-(3,5-difluoro-phenyl)-1-oxo-2-aza-spiro [4.5]dec-7-yl]-amide]: 81 to 99%. The same measure for `Cc1cncc(C(=O)N[C@H]2CCC[C@]3(CCN(c4cc(F)cc(F)c4)C3=O)C2)n1` (relative stereo) [Example 55, cis-6-Methyl-pyrazine-2-carboxylic acid [2-(3,5-difluoro-phenyl)-1-oxo-2-aza-spiro [4.5]dec-7-yl]-amide]: 81 to 99%.
